PubChem BioAssay (NCI)
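Interpolation was linear, between the two tested concentrations surrounding the appropriate level; five concentrations were tested over 48 hours in 96-well plates. The concentration for 50% growth inhibition is given as GI50. Definition used: TGI = concentration required for complete inhibition of growth.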

Columns and labels:
Test in all cases: NCI-60 cell line screen, 48 h
[1] = test system: NCI-H460 lung
[2] = test system: SF-295 CNS
[3] = test system: HOP-62 NSCLC
[4] = test system: ACHN renal
[5] = test system: M14 melanoma
[6] = test system: HCC-2998 colon
[7] = test system: SN12C renal
[8] = test system: DU-145 prostate
[9] = test system: SW-620 colon
[10] = test system: RPMI-8226 leukemia
[11] = test system: OVCAR-4 ovarian
[12] = test system: SF-539 CNS
[13] = test system: HS 578T breast
[14] = test system: COLO 205 colon
[15] = test system: CCRF-CEM leukemia
[16] = test system: SK-MEL-2 melanoma
[17] = test system: OVCAR-5 ovarian
[18] = test system: NCI-H226 lung
[19] = test system: BT-549 breast
[20] = test system: HOP-92 NSCLC
[21] = test system: OVCAR-8 ovarian
[22] = test system: T-47D breast
[23] = test system: MOLT-4 leukemia
[24] = test system: HCT-15 colon
[25] = test system: MCF7 breast
[26] = test system: SNB-75 CNS
[27] = test system: HL-60(TB) leukemia
[28] = test system: MALME-3M melanoma
[29] = test system: RXF 393 renal
[30] = test system: UACC-257 melanoma
[31] = test system: SNB-19 CNS
[32] = test system: LOX IMVI melanoma
[33] = test system: UACC-62 melanoma
[34] = test system: CAKI-1 renal
[35] = test system: MDA-MB-231 breast
[36] = test system: MDA-MB-435
[37] = test system: SK-MEL-5 melanoma
[38] = test system: EKVX NSCLC
[39] = test system: OVCAR-3 ovarian
[40] = test system: MDA-MB-468 breast
[41] = test system: TK-10 renal
[42] = test system: 786-0 renal
[43] = test system: K-562 leukemia
[44] = test system: HT29 colon
[45] = test system: NCI-H522 lung
[46] = test system: PC-3 prostate
[47] = test system: SK-MEL-28 melanoma
[48] = test system: NCI/ADR-RES ovarian
[49] = test system: NCI-H23 lung
[50] = test system: U251 CNS
[51] = test system: SF-268 CNS
[52] = test system: A498 renal
[53] = test system: KM12 colon
[54] = test system: UO-31 renal
[55] = test system: A549 NSCLC
[56] = test system: SK-OV-3 ovarian
[57] = test system: IGROV1 ovarian
[58] = test system: SR leukemia

`CC(=O)Oc1ccccc1C(=O)Oc1ccc(C(=O)/C=C/c2ccncc2)cc1` gave a GI50 [1] of 11.2 µM, a TGI [1] of 48.9 µM and a GI50 [2] of 8.56 µM. The TGI [2] was 58.1 µM, the GI50 [3] was 27.5 µM and the TGI [3] was over 100 µM. For the same molecule, the GI50 [4] was 15.6 µM, the TGI [4] was 44.9 µM and the GI50 [5] was 14.5 µM. The TGI [5] was over 100 µM, the GI50 [6] was 4.83 µM and the TGI [6] was 16.4 µM. The GI50 [7] was 10.1 µM, the TGI [7] was 45.5 µM and the GI50 [8] was 10.5 µM. The TGI [8] was 44.1 µM, the GI50 [9] was 3.04 µM and the TGI [9] was 18.9 µM. It also gave a GI50 [10] of 1.58 µM, a TGI [10] of 7.19 µM and a GI50 [11] of 29.7 µM. The TGI [11] was over 100 µM, the GI50 [12] was 4.29 µM and the TGI [12] was 17.4 µM. The GI50 [13] was 22.5 µM, the TGI [13] was over 100 µM and the GI50 [14] was 12.7 µM. It also gave a TGI [14] of 40.5 µM, a GI50 [15] of 2.38 µM and a TGI [15] of over 100 µM. The GI50 [16] was 32.5 µM, the TGI [16] was over 100 µM and the GI50 [17] was 24.9 µM. It also gave a TGI [17] of 99.1 µM, a GI50 [18] of 26.4 µM and a TGI [18] of over 100 µM. It also gave a GI50 [19] of 17 µM, a TGI [19] of 38.7 µM and a GI50 [20] of 21.1 µM. For the same molecule, the TGI [20] was over 100 µM, the GI50 [21] was 24.9 µM and the TGI [21] was over 100 µM. The GI50 [22] was 23.8 µM, the TGI [22] was 97.6 µM and the GI50 [23] was 15.9 µM. It also gave a TGI [23] of 85.9 µM, a GI50 [24] of 3.55 µM and a TGI [24] of 18.8 µM. For the same molecule, the GI50 [25] was 1.1 µM, the TGI [25] was 9.24 µM and the GI50 [26] was 15.8 µM. For the same molecule, the TGI [26] was over 100 µM, the GI50 [27] was 4.93 µM and the TGI [27] was 34.1 µM. The GI50 [28] was 16.5 µM, the TGI [28] was 51.4 µM and the GI50 [29] was 5.25 µM. For the same molecule, the TGI [29] was 20.8 µM, the GI50 [30] was 16.9 µM and the TGI [30] was 63.4 µM. It also gave a GI50 [31] of 15.3 µM, a TGI [31] of 47.3 µM and a GI50 [32] of 1.96 µM. It also gave a TGI [32] of 5.87 µM, a GI50 [33] of 16.6 µM and a TGI [33] of 42.3 µM. The GI50 [34] was 19.3 µM, the TGI [34] was over 100 µM and the GI50 [35] was 8.6 µM. It also gave a TGI [35] of 36.2 µM, a GI50 [36] of 4.45 µM and a TGI [36] of 44.3 µM. For the same molecule, the GI50 [37] was 12.4 µM, the TGI [37] was 29.5 µM and the GI50 [38] was 14.7 µM. For the same molecule, the TGI [38] was 45.7 µM, the GI50 [39] was 5.3 µM and the TGI [39] was 26 µM. For the same molecule, the GI50 [40] was 2.36 µM, the TGI [40] was 8.34 µM and the GI50 [41] was 37.4 µM. For the same molecule, the TGI [41] was over 100 µM, the GI50 [42] was 16.1 µM and the TGI [42] was over 100 µM. It also gave a GI50 [43] of 2.29 µM, a TGI [43] of over 100 µM and a GI50 [44] of 3.6 µM. The TGI [44] was 20.1 µM, the GI50 [45] was 4.85 µM and the TGI [45] was 21.5 µM. It also gave a GI50 [46] of 10.4 µM, a TGI [46] of over 100 µM and a GI50 [47] of 19.3 µM. For the same molecule, the TGI [47] was 62.1 µM, the GI50 [48] was 20.7 µM and the TGI [48] was over 100 µM. It also gave a GI50 [49] of 10.8 µM, a TGI [49] of 30.8 µM and a GI50 [50] of 3.77 µM. It also gave a TGI [50] of 70.8 µM, a GI50 [51] of 25 µM and a TGI [51] of over 100 µM. For the same molecule, the GI50 [52] was 20.5 µM, the TGI [52] was 71.4 µM and the GI50 [53] was 3.57 µM. For the same molecule, the TGI [53] was 22.2 µM, the GI50 [54] was 10.3 µM and the TGI [54] was 24 µM. For the same molecule, the GI50 [55] was 15.1 µM, the TGI [55] was over 100 µM and the GI50 [56] was 30.9 µM. It also gave a TGI [56] of over 100 µM, a GI50 [57] of 7.4 µM and a TGI [57] of 54 µM. The GI50 [58] was 0.407 µM and the TGI [58] was over 100 µM.
